Data published in patent publication US7026354B2 (priority 2001, dated 2006).
Several values for one entry are separate records, joined by “and”; a condition that tells them apart may be missing. Equal entries are not always repeated. Where two headings read alike, the source gives them in different places.

How the values were obtained:
Assay type in all cases: cell-based
S. aureus (MN8) [1] = system: S. aureus (MN8)
S. aureus (MN8) [2] = system: S. aureus (MN8); remark: listed apart in the source
S. aureus strain RN 6390 = system: S. aureus strain RN 6390
S. aureus FRI-1169 [3] = system: S. aureus FRI-1169
S. aureus FRI-1187 [4] = settings: for ELISA: TSST-1 ng/OD unit / Reduction of Toxin %: Table 5, FRI-1187
S. aureus FRI-1187 [5] = system: S. aureus FRI-1187
S. aureus FRI-1169 [6] = system: S. aureus FRI-1169; remark: listed apart in the source
[7] = Table 10, Cetiol 2.5 mM, PABA 0%
[8] = Table 10, Cetiol 10 mM, PABA 0%
[9] = Table 1, 0.5% test compound, 24 h
[10] = Table 1, 0.5% test compound, vs control
[11] = Table 6, Cetiol 1414E 0, PEA 0.05%
[12] = Table 6, Cetiol 1414E 0, PEA 0.15%
[13] = Table 6, Cetiol 1414E 0, PEA 0.3%
[14] = Table 6, Cetiol 1414E 0, PEA 0.5%

In the case of `Nc1ccc(C(=O)O)cc1` [p-aminobenzoic acid], the “ELISA: TSST-1 ng/OD unit” value (S. aureus (MN8) [1]; Table 2, 0.2% test compound) is reported as 317 ng/OD unit, the “ng TSST-1/OD” value (S. aureus (MN8) [1]; Table 10, Cetiol 0 mM, PABA 0.05%) is reported as 5670 ng/OD and the “ng TSST-1/OD” value (S. aureus (MN8) [1]; Table 10, Cetiol 0 mM, PABA 0.09%) is reported as 3389 ng/OD. For the same molecule, the “ng TSST-1/OD” value (S. aureus (MN8) [1]; Table 10, Cetiol 0 mM, PABA 0.19%) was 1975 ng/OD, the “ng TSST-1/OD” value (S. aureus (MN8) [1]; Table 10, Cetiol 0 mM, PABA 0.38%) was 1039 ng/OD and the CFU/mL (S. aureus (MN8) [2]) was 1.1E+09 CFU/mL and 1.53E+09 CFU/mL and 1.85E+09 CFU/mL and 1.79E+09 CFU/mL and 1.15E+09 CFU/mL. The OD (S. aureus (MN8) [2]) was 0.546 and 0.558 and 0.599 and 0.589 and the “Optical Density” value (S. aureus (MN8) [2]) was 0.618.

With myreth-3 myristate [Cetiol 1414E] the “ng TSST-1 per CFU” value (S. aureus (MN8) [1]; Table 6, Cetiol 1414E 2.5 mM, PEA 0) was 239 ng per CFU, the “ng TSST-1 per CFU” value (S. aureus (MN8) [1]; Table 6, Cetiol 1414E 5 mM, PEA 0) was 172 ng per CFU and the “ng TSST-1 per CFU” value (S. aureus (MN8) [1]; Table 6, Cetiol 1414E 10 mM, PEA 0) was 61 ng per CFU. For the same molecule, the “% Reduction” value (S. aureus (MN8) [1]; [7]) was 31%, the “ng TSST-1/OD” value (S. aureus (MN8) [1]; [7]) was 3367 ng/OD and the “% Reduction” value (S. aureus (MN8) [1]; Table 10, Cetiol 5 mM, PABA 0%) was 51%. For the same molecule, the “ng TSST-1/OD” value (S. aureus (MN8) [1]; Table 10, Cetiol 5 mM, PABA 0%) was 2419 ng/OD, the “% Reduction” value (S. aureus (MN8) [1]; [8]) was 53% and the “ng TSST-1/OD” value (S. aureus (MN8) [1]; [8]) was 2286 ng/OD. For the same molecule, the “Log CFU/mL” value (S. aureus (MN8) [2]) was 8.6 Log CFU/mL and 8.5 Log CFU/mL and the OD (S. aureus (MN8) [2]) was 0.881 and 0.976 and 0.637.

For `O=C(O)c1ccccc1O` [2-hydroxybenzoic acid], the “ELISA: TSST-1 ng/OD unit” value (S. aureus (MN8) [1]; Table 2, 0.2% test compound) was 193 ng/OD unit, the CFU/mL (S. aureus (MN8) [2]) was 1.48E+09 CFU/mL and the “Optical Density” value (S. aureus (MN8) [2]) was 0.682.

For `COC(=O)c1ccc(O)cc1` [p-hydroxybenzoic acid, methyl ester], the “production of alpha toxin” value (S. aureus strain RN 6390) was “significantly reduced”, the “% Toxin Inhibition” value (S. aureus strain RN 6390; Table 8, 0.1% test compound) was 70% and the “Hemolytic Endpoint 50% lysis” value (S. aureus strain RN 6390; Table 8, 0.1% test compound, reciprocal of the dilution giving 50% lysis) was 79. The “% Toxin Inhibition” value (S. aureus strain RN 6390; Table 8, 0.2% test compound) was 94%, the “Hemolytic Endpoint 50% lysis” value (S. aureus strain RN 6390; Table 8, 0.2% test compound, reciprocal of the dilution giving 50% lysis) was 16 and the “ELISA: TSST-1 ng/OD unit” value (S. aureus (MN8) [1]; Table 2, 0.2% test compound) was 506 ng/OD unit. For the same molecule, the CFU/mL (S. aureus (MN8) [2]) was >1.5E+08 CFU/mL and the “Optical Density” value (S. aureus (MN8) [2]) was 0.356.

In the case of `O=C(O)/C=C/c1ccccc1` [Trans-cinnamic acid], the “ELISA: TSST-1 ng/OD unit” value (S. aureus (MN8) [1]; Table 3, 0.5% test compound) is reported as 436 ng/OD unit, the CFU/mL (S. aureus (MN8) [2]) is reported as 1.7E+09 CFU/mL and the “Optical Density” value (S. aureus (MN8) [2]) is reported as 0.549.

In the case of `OCc1ccccc1` [Benzyl alcohol], the “ELISA: TSST-1 ng/OD unit” value (S. aureus (MN8) [1]; [9]) is reported as 131 ng/OD unit, the “Reduction of Toxin %” value (S. aureus (MN8) [1]; [10]) is reported as 91% and the CFU/mL (S. aureus (MN8) [2]; 24 h) is reported as 1.8E+08 CFU/mL. The “Optical Density” value (S. aureus (MN8) [2]; 24 h, 600 nm) was 0.792.

`OCCc1ccccc1` [Phenylethyl alcohol] was tested, and the “Reduction of Toxin %” value (S. aureus FRI-1169 [3]) was 99% and 95%, the “reduction of the amount of exotoxin production” value (S. aureus FRI-1187 [4]) was “significantly reduced” and the “ELISA: TSST-1 ng/OD unit” value (S. aureus FRI-1187 [4]; 0.25% test compound) was 1 ng/OD unit. For the same molecule, the “Reduction of Toxin %” value (S. aureus FRI-1187 [4]; 0.25% test compound) was 98%, the “ELISA: TSST-1 ng/OD unit” value (S. aureus FRI-1187 [4]; 0.5% test compound) was “none detected” and the “Reduction of Toxin %” value (S. aureus FRI-1187 [4]; 0.5% test compound) was 100%. The “Hemolytic Endpoint 50% lysis” value (S. aureus strain RN 6390) was “None Detected”, the “production of alpha toxin” value (S. aureus strain RN 6390) was “significantly reduced” and the “% Toxin Inhibition” value (S. aureus strain RN 6390; Table 7, 0.3% test compound) was 97%. The “Hemolytic Endpoint 50% lysis” value (S. aureus strain RN 6390; Table 7, 0.3% test compound, reciprocal of the dilution giving 50% lysis) was 3, the “% Toxin Inhibition” value (S. aureus strain RN 6390; Table 7, 0.4% test compound) was 100% and the “Optical Density” value (S. aureus FRI-1187 [5]) was 1.296 and 1.244. The “effect on the growth of S. aureus cells” value (S. aureus FRI-1187 [5]) was “minimal, if any, effect on the growth”, the “% Reduction” value (S. aureus (MN8) [1]) was 57% and 80% and 93% and 98% and the “ELISA: TSST-1 ng/OD unit” value (S. aureus (MN8) [1]; [9]) was 60 ng/OD unit. The “Reduction of Toxin %” value (S. aureus (MN8) [1]; [10]) was 96%, the “ELISA: TSST-1 ng/OD unit” value (S. aureus (MN8) [1]; Table 2, 0.5% test compound) was 68 ng/OD unit and the “ELISA: TSST-1 ng/OD unit” value (S. aureus (MN8) [1]; Table 3, 0.5% test compound) was 46 ng/OD unit. For the same molecule, the “ELISA: TSST-1 ng/OD unit” value (S. aureus (MN8) [1]; Table 4, 0.5% test compound) was 25 ng/OD unit, the “Reduction of Toxin %” value (S. aureus (MN8) [1]; [11]) was 32% and the “ng TSST-1 per CFU” value (S. aureus (MN8) [1]; [11]) was 266 ng per CFU. For the same molecule, the “ng TSST-1 per mL” value (S. aureus (MN8) [1]; [11]) was 826 ng per mL, the “Reduction of Toxin %” value (S. aureus (MN8) [1]; [12]) was 67% and the “ng TSST-1 per CFU” value (S. aureus (MN8) [1]; [12]) was 129 ng per CFU. The “ng TSST-1 per mL” value (S. aureus (MN8) [1]; [12]) was 561 ng per mL, the “Reduction of Toxin %” value (S. aureus (MN8) [1]; [13]) was 90% and the “ng TSST-1 per CFU” value (S. aureus (MN8) [1]; [13]) was 39 ng per CFU. The “ng TSST-1 per mL” value (S. aureus (MN8) [1]; [13]) was 201 ng per mL, the “Reduction of Toxin %” value (S. aureus (MN8) [1]; [14]) was 93% and the “ng TSST-1 per CFU” value (S. aureus (MN8) [1]; [14]) was 27 ng per CFU. The “ng TSST-1 per mL” value (S. aureus (MN8) [1]; [14]) was 106 ng per mL, the “ng TSST-1/OD” value (S. aureus (MN8) [1]; Table 9, Glucopon 0 mM, PEA 0.05%) was 323 ng/OD and the “ng TSST-1/OD” value (S. aureus (MN8) [1]; Table 9, Glucopon 0 mM, PEA 0.15%) was 152 ng/OD. The “ng TSST-1/OD” value (S. aureus (MN8) [1]; Table 9, Glucopon 0 mM, PEA 0.3%) was 54 ng/OD, the “ng TSST-1/OD” value (S. aureus (MN8) [1]; Table 9, Glucopon 0 mM, PEA 0.50%) was 13 ng/OD and the “Optical Density” value (S. aureus FRI-1169 [6]) was 1.263 and 1.208. For the same molecule, the “effect on the growth of S. aureus cells” value (S. aureus FRI-1169 [6]) was “minimal, if any, effect on the growth”, the “Log CFU/mL” value (S. aureus (MN8) [2]) was 8.6 Log CFU/mL and 8.7 Log CFU/mL and 8.5 Log CFU/mL and the OD (S. aureus (MN8) [2]) was 0.712 and 0.730 and 0.758 and 0.721. The “Optical Density” value (S. aureus (MN8) [2]) was 0.542 and 0.551 and 0.476 and 0.554.

For `O=C(O)c1cc(O)c(O)c(O)c1` [Gallic acid], the “ELISA: TSST-1 ng/OD unit” value (S. aureus (MN8) [1]; Table 3, 0.5% test compound) was 63 ng/OD unit, the CFU/mL (S. aureus (MN8) [2]) was 1.2E+09 CFU/mL and the “Optical Density” value (S. aureus (MN8) [2]) was 0.492.

In the case of `CC(=O)Nc1ccc(O)cc1` [4-Acetamidophenol], the “ELISA: TSST-1 ng/OD unit” value (S. aureus (MN8) [1]; Table 4, 0.5% test compound) is reported as 230 ng/OD unit, the CFU/mL (S. aureus (MN8) [2]) is reported as 2.4E+09 CFU/mL and the “Optical Density” value (S. aureus (MN8) [2]) is reported as 0.629.

`CC(=O)N[C@@H](Cc1ccc(O)cc1)C(=O)O` [Acetyl tyrosine] was tested, and the “ELISA: TSST-1 ng/OD unit” value (S. aureus (MN8) [1]; Table 3, 0.5% test compound) was 436 ng/OD unit, the CFU/mL (S. aureus (MN8) [2]) was 1.7E+09 CFU/mL and the “Optical Density” value (S. aureus (MN8) [2]) was 0.549.

For `NC(=O)c1ccccc1O` [2-hydroxybenzamide], the “ELISA: TSST-1 ng/OD unit” value (S. aureus (MN8) [1]; Table 1, 1.0% test compound, 24 h) was 65 ng/OD unit, the “Reduction of Toxin %” value (S. aureus (MN8) [1]; Table 1, 1.0% test compound, vs control) was 95% and the CFU/mL (S. aureus (MN8) [2]; 24 h) was 9.0E+07 CFU/mL. The “Optical Density” value (S. aureus (MN8) [2]; 24 h, 600 nm) was 0.549.
